# Assay results from patent US12668586B2, “AhR inhibitor, use thereof, and preparation method therefor” (CHONGQING PHARSCIN INNOBIO CO., LTD., priority 2021, dated 2026).
# Biological target: T1, AhR (Homo sapiens, UniProt P35869)
# T1 sequence (P35869 11-848): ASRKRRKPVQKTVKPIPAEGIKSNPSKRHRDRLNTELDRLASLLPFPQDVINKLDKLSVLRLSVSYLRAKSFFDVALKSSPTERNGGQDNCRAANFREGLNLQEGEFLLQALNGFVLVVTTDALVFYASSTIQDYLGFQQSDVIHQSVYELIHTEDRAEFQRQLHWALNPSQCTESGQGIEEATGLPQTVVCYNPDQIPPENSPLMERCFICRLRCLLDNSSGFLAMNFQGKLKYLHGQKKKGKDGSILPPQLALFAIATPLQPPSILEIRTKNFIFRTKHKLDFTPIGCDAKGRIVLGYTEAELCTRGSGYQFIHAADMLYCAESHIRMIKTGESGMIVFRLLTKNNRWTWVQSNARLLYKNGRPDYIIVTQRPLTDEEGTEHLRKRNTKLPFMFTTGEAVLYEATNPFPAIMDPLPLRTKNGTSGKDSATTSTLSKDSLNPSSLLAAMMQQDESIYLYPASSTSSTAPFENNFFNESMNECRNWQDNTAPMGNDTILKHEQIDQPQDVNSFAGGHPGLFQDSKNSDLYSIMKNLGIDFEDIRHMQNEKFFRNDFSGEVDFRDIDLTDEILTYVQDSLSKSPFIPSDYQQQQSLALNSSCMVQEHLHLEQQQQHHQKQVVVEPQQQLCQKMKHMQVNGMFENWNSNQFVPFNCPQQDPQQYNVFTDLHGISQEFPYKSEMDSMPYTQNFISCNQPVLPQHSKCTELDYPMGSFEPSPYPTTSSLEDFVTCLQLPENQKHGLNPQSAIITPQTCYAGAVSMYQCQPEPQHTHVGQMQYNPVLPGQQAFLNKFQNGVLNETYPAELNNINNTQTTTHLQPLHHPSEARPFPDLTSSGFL
# Experiment: AhR inhibitory activity experiment, in vitro assay 1: HepG2-Lucia AhR cells, Lucia luciferase reporter (QUANTI-Luc)
# Type: cell-based
# Details: 24 hours incubation at 37° C., Lucia luciferase in supernatant, read-out: AhR inhibitory activity C50
# Experimental: Test Example: AhR Inhibitory Activity Experiment
# When QUANTI-Luc™ (InvivoGen Company) testing reagents are used, AhR gene signaling pathways can be studied by monitoring the activity of Lucia luciferase in the cell culture supernatant.
# In Vitro Assay 1: Assay on Inhibitory Activity in Human Cell Lines
# Adherent cell layers of HepG2-Lucia™ AhR cells in a logarithmic growth phase were washed with PBS, and then the cells were isolated with trypsin. The isolated cells were centrifuged at 1000 RPM for 5 minutes, the supernatant was removed, and the cells were re-suspended with a test medium by 1.25×10^5 cells/ml.
# 20,000 cells were added to each well of a 96-well plate, and the 96-well plate was placed in a CO2 incubator to incubate the cells at 37° C. for 24 hours in the absence (negative control) or presence of test compounds with gradient increasing concentrations (typical dilutions: 169 pmol/L, 0.5 nmol/L, 1.5 nmol/L; 4.6 nmol/L, 13.7 nmol/L, 41 nmol/L, 123 nmol/L, 370 nmol/L, 1.1 μmol/L, 3.3 μmol/L and 10 μmol/L, in triplicate).
# The 20 μl/well cell supernatant was transferred to a black 96-well plate, a 50 μL/well QUANTI-Luc™ solution was added, and the activity of Lucia luciferase was measured on a multifunctional ELISA reader Spark 10 M (Tecan Company) through a QUANTI-Luc™ luciferase assay system.
# Experimental results are shown in Table 1, wherein for IC50 values, “++++” represents IC50<0.05 μM; “+++” represents IC50 between 0.05 μM and 0.2 μM; “++” represents IC50 between 0.2 μM and 1.0 μM; and “+” represents IC50>1.0 μM.
row,IC50 [nM],Structure (SMILES)
1,< 50,"C[C@H](NC(=O)c1cc(-c2ccc(Cl)cc2)nc(-c2cnn(C)c2)n1)c1ccc(F)c(F)c1 [Compound 1, (S)-6-(4-chlorophenyl)-N-(1-(3,4-difluorophenyl)ethyl)-2-(1-methyl-1H-pyrazol-4-yl)pyrimidine-4-formamide]"
2,< 50,"Cn1cc(-c2nc(C(=O)N[C@H]3CCc4ncccc43)cc(-c3ccc(Cl)cc3)n2)cn1 [Compound 2, (S)-6-(4-chlorophenyl)-N-((S)-6,7-dihydro-5H-cyclopentano[B]pyridin-5-yl)-2-(1-methyl-1H-pyrazol-4-yl)pyrimidine-4-formamide]"
3,50 to 200,"Cn1cc(-c2nc(C(=O)N[C@H]3c4ccccc4C[C@H]3O)cc(-c3ccc(Cl)cc3)n2)cn1 [Compound 3, (S)-6-(4-chlorophenyl)-N-((1S, 2R)-(−)-1-yl-2-indanol)-2-(1-methyl-1H-pyrazol-4-yl)pyrimidine-4-formamide]"
4,< 50,"C[C@H](NC(=O)c1cc(-c2ccc(Cl)cc2)nc(-c2cnn(C)c2)n1)c1ccncc1 [Compound 4, (S)-6-(4-chlorophenyl)-N-(1-(4-pyridine)ethyl)-2-(1-methyl-1H-pyrazol-4-yl)pyrimidine-4-formamide]"
5,< 50,"C[C@H](NC(=O)c1cc(-c2ccc(Cl)cc2)nc(-c2cnn(C)c2)n1)c1ccnc(C(F)(F)F)c1 [Compound 5, (S)-6-(4-chlorophenyl)-N-(1-(2-trifluoromethyl-4-pyridine)ethyl)-2-(1-methyl-1H-pyrazol-4-yl)pyrimidine-4-formamide]"
6,> 1000,"Cn1cc(-c2nc(C(=O)NCCc3c[nH]c4ccccc34)cc(-c3ccc(Cl)cc3)n2)cn1 [Compound 6, (S)-6-(4-chlorophenyl)-N-(2-(1H-indol-3-yl)ethyl)-2-(1-methyl-1H-pyrazol-4-yl)pyrimidine-4-formamide]"
7,< 50,"Cn1cc(-c2nc(C(=O)NC3(c4ccc(F)c(F)c4)CC3)cc(-c3ccc(Cl)cc3)n2)cn1 [Compound 7, (S)-6-(4-chlorophenyl)-N-(1-(3,4-difluorophenyl)cyclopropyl)-2-(1-methyl-1H-pyrazol-4-yl)pyrimidine-4-formamide]"
8,< 50,"COc1ccc([C@H](C)NC(=O)c2cc(-c3ccc(Cl)cc3)nc(-c3cnn(C)c3)n2)cc1F [Compound 8, (S)-6-(4-chlorophenyl)-N-(1-(3-fluoro-4-methoxyphenyl)ethyl)-2-(1-methyl-1H-pyrazol-4-yl)pyrimidine-4-formamide]"
9,< 50,"C[C@H](NC(=O)c1cc(-c2ccc(Cl)cc2)nc(-c2cnn(C)c2)n1)c1ccnc(Cl)c1 [Compound 9, (S)-6-(4-chlorophenyl)-N-(1-(2-chloro-4-pyridine)ethyl)-2-(1-methyl-1H-pyrazol-4-yl)pyrimidine-4-formamide]"
10,> 1000,"C[C@H](NC(=O)c1cc(-c2ccc(Cl)cc2)nc(-c2cnn(C)c2)n1)c1ccc(O)c(F)c1 [Compound 11, (S)-6-(4-chlorophenyl)-N-(1-(3-fluoro-4-hydroxyphenyl)ethyl)-2-(1-methyl-1H-pyrazol-4-yl)pyrimidine-4-formamide]"
11,< 50,"C[C@H](NC(=O)c1cc(-c2ccc(Cl)cc2)nc(-c2cnn(C)c2)n1)c1ccnc(C#N)c1 [Compound 12, (S)-6-(4-chlorophenyl)-N-(1-(2-cyano-4-pyridine)ethyl)-2-(1-methyl-1H-pyrazol-4-yl)pyrimidine-4-formamide]"
12,< 50,"C[C@H](NC(=O)c1cc(-c2ccc(Cl)cc2)nc(-c2cnn(C)c2)n1)c1ccc(Cl)c(F)c1 [Compound 13, (S)-6-(4-chlorophenyl)-N-(1-(3-fluoro-4-chlorophenyl)ethyl)-2-(1-methyl-1H-pyrazol-4-yl)pyrimidine-4-formamide]"
13,< 50,"C[C@H](NC(=O)c1cc(-c2ccc(Cl)cc2)nc(-c2cnn(C)c2)n1)c1cnn(C)c1 [Compound 14, (S)-6-(4-chlorophenyl)-N-(1-(1-methyl-1H-pyrazol-4-yl)ethyl)-2-(1-methyl-1H-pyrazol-4-yl)pyrimidine-4-formamide]"
14,< 50,"C[C@H](NC(=O)c1cc(-c2ccc(Cl)cc2)nc(-c2cnn(C)c2)n1)c1ccnc(F)c1 [Compound 15, (S)-6-(4-chlorophenyl)-N-(1-(2-fluoro-4-pyridine)ethyl)-2-(1-methyl-1H-pyrazol-4-yl)pyrimidine-4-formamide]"
15,50 to 200,"C[C@H](NC(=O)c1cc(-c2ccc(Cl)cc2)nc(-c2cnn(C)c2)n1)c1ccc2c(c1)OCO2 [Compound 16, (S)-6-(4-chlorophenyl)-N-(1-[5(2H-1,3-benzodioxomethylene)]ethyl)-2-(1-methyl-1H-pyrazol-4-yl)pyrimidine-4-formamide]"
16,< 50,C[C@H](NC(=O)c1cc(-c2ccc(Cl)cc2)nc(-c2cnn(C)c2)n1)c1ccn2ncnc2c1 [Compound 17]
17,< 50,"CC[C@H](NC(=O)c1cc(-c2ccc(Cl)cc2)nc(-c2cnn(C)c2)n1)c1ccc(F)cc1 [Compound 18, (S)-6-(4-chlorophenyl)-N-(1-(4-fluorophenyl)n-propyl)-2-(1-methyl-1H-pyrazol-4-yl)pyrimidine-4-formamide]"
18,< 50,"Cn1cc(-c2nc(C(=O)N[C@H](c3ccc(F)cc3)C3CC3)cc(-c3ccc(Cl)cc3)n2)cn1 [Compound 19, (S)-6-(4-chlorophenyl)-N-(1-cyclopropyl(4-fluorophenyl))-2-(1-methyl-1H-pyrazol-4-yl)pyrimidine-4-formamide]"
19,50 to 200,"Cn1cc(-c2nc(C(=O)N[C@H]3CCc4cc(F)c(F)cc43)cc(-c3ccc(Cl)cc3)n2)cn1 [Compound 20, (S)-6-(4-chlorophenyl)-N-((S)-(5,6-difluoro-2,3-dihydro)-(−)-1-yl-2-indene)-2-(1-methyl-1H-pyrazol-4-yl)pyrimidine-4-formamide]"
20,50 to 200,"Cn1cc(-c2nc(C(=O)N[C@H]3CCc4ccc(F)cc43)cc(-c3ccc(Cl)cc3)n2)cn1 [Compound 21, (S)-6-(4-chlorophenyl)-N-((S)-(6-fluoro-2,3-dihydro)-(−)-1-yl-2-indene)-2-(1-methyl-1H-pyrazol-4-yl)pyrimidine-4-formamide]"
21,> 1000,"Cn1cc(-c2nc(C(=O)NCC3(c4ccc(Cl)cc4)CC3)cc(-c3ccc(Cl)cc3)n2)cn1 [Compound 22, (S)-6-(4-chlorophenyl)-N-(1-[1-(4-chlorophenyl)cyclopropyl]methyl)-2-(1-methyl-1H-pyrazol-4-yl)pyrimidine-4-formamide]"
22,< 50,"Cn1cc(-c2nc(C(=O)N[C@H]3CCCc4ncccc43)cc(-c3ccc(Cl)cc3)n2)cn1 [Compound 23, (S)-6-(4-chlorophenyl)-N-((S)-5,6,7,8-tetrahydro-6H-quinol-5-yl)-2-(1-methyl-1H-pyrazol-4-yl)pyrimidine-4-formamide]"
23,200 to 1000,"C[C@H](NC(=O)c1cc(-c2ccc(Cl)cc2)nc(-c2cnn(C)c2)n1)c1ccccc1C(F)(F)F [Compound 24, (S)-6-(4-chlorophenyl)-N-(1-(o-trifluoromethylphenyl)ethyl)-2-(1-methyl-1H-pyrazol-4-yl)pyrimidine-4-formamide]"
24,> 1000,"Cn1cc(-c2nc(C(=O)N[C@H]3CC(C)(C)c4ccccc43)cc(-c3ccc(Cl)cc3)n2)cn1 [Compound 25, (S)-6-(4-chlorophenyl)-N-((S)-(3,3-dimethyl-2,3-dihydro)-(−)-1-yl-2-indene)-2-(1-methyl-1H-pyrazol-4-yl)pyrimidine-4-formamide]"
